The inhibition is how much of the control response was suppressed. Low values mean a weak effect, high ones a strong effect.

Assay [1] has as its system human prostate tissues. Conditions: Hennenberg et al., 2018; cited from earlier work.
The subject of assay [2] is human prostate tissues. Nature of the assay: organ bath, noradrenaline-induced contractions of human prostate strips. Conditions: Homo sapiens, 100 μM noradrenaline. The procedure:
Human prostate tissues were obtained from patients undergoing radical prostatectomy for prostate cancer (n=107). Patients who underwent previous transurethral resection of the prostate (TURP) were excluded. This study was carried out in accordance with the Declaration of Helsinki of the World Medical Association, and has been approved by the ethics committee of the Ludwig-Maximilians University, Munich, Germany (Ethikkommission bei der LMU Munchen, approval number 19-737). Informed consent was obtained from all patients. According to the ethical approval, samples and data were collected and analyzed anonymously, so that no data on patients' characteristics were stored. Samples were taken immediately after prostatectomy, following macroscopical examination by an uro-pathologist. All tissues were taken from the periurethral zone, considering that most prostate cancers arise in the peripheral zone (Pradidarcheep et al., 2011; Shaikhibrahim et al., 2012). […] BPH is present in 80-83% of patients with prostate cancer (Alcaraz et al., 2009; Orsted and Bojesen, 2013). Typically, such tissues show varying content of prostate-specific antigen (PSA), and different contents of smooth muscle and glandular epithelia, reflecting that BPH is present to different degree (Wang et al., 2016a, 2016c). For macroscopic examination and sampling, the prostate was opened by a single longitudinal cut from the capsule to the urethra. Subsequently, both intersections were checked macroscopically for any obvious tumor infiltration. Because tumors are usually located to the peripheral zone, tumor infiltration in the periurethral zone (where sampling was performed) was very rare (found in less than 1% of prostates). Prostates showing tumors in the periurethral zone in macroscopic inspection were not subjected to sampling and were not included in this study. Organ bath studies were performed immediately after sampling, while samples for molecular analyses were shock frozen in liquid nitrogen and stored at −80° C.
Prostate strips (6×3×3 mm) were mounted in 10 ml aerated (95% 02 and 5% CO2) tissue baths (Danish Myotechnology, Aarhus, Denmark), containing Krebs-Henseleit solution (37° C., pH 7.4) with following composition: 118 mM NaCl, 4.7 mM KCl, 2.55 mM CaCl2), 1.2 mM KH2PO4, 1.2 mM MgSO4, 25 mM NaHCO3, 7.5 mM glucose. In each single experiment, two from four strips obtained from the same prostate were allocated to the control group (without inhibitor or antagonist), and two others to the inhibitor/antagonist group (resulting in duplicate determination for each group in each single experiment). All four samples of one experiment were examined in four chambers of the same organ bath. Consequently, control and inhibitor curves in each series/diagram were obtained from the same prostates, but different prostates were examined for different series/diagrams. […] Only one curve was recorded with each sample, i. e. for one agonist, or for electric field stimulation (EFS).
After mounting in organ bath chambers, preparations were stretched to 4.9 mN and left to equilibrate for 45 min. […] After the equilibration period, maximum contraction induced by 80 mM KCl was assessed. […]

For assay [3], the system named is human prostate tissues. Nature of the assay: organ bath, EFS-induced (neurogenic) contractions of human prostate strips. The following applies: 32 Hz. The text has this: Patients who underwent previous transurethral resection of the prostate (TURP) were excluded. […] Informed consent was obtained from all patients. According to the ethical approval, samples and data were collected and analyzed anonymously, so that no data on patients' characteristics were stored. Samples were taken immediately after prostatectomy, following macroscopical examination by an uro-pathologist. […] For macroscopic examination and sampling, the prostate was opened by a single longitudinal cut from the capsule to the urethra. Subsequently, both intersections were checked macroscopically for any obvious tumor infiltration. […] Prostates showing tumors in the periurethral zone in macroscopic inspection were not subjected to sampling and were not included in this study. Organ bath studies were performed immediately after sampling, while samples for molecular analyses were shock frozen in liquid nitrogen and stored at −80° C.
In each single experiment, two from four strips obtained from the same prostate were allocated to the control group (without inhibitor or antagonist), and two others to the inhibitor/antagonist group (resulting in duplicate determination for each group in each single experiment). All four samples of one experiment were examined in four chambers of the same organ bath. Consequently, control and inhibitor curves in each series/diagram were obtained from the same prostates, but different prostates were examined for different series/diagrams. […] Therefore, and considering that prostate tissues from radical prostatectomy may show considerable heterogeneity, statistical comparisons were only performed between groups within the same series (i. e. containing tissues from the same prostates for inhibitor and control group), but not between series obtained from different prostates (i. e., not across different series of organ bath experiments). Only one curve was recorded with each sample, i. e. for one agonist, or for electric field stimulation (EFS).
Subsequently, chambers were washed three times with Krebs-Henseleit solution for a total of 30 min.
Application of EFS simulates action potentials, resulting in the release of endogenous neurotransmitters, including noradrenaline. […] For EFS, tissue strips were placed between two parallel platinum electrodes connected to a CS4 stimulator (Danish Myotechnology). […] EFS-induced contractile responses were studied at frequencies of 2, 4, 8, 16, and 32 Hz, with train intervals of 30 s between stimulations.
Data analyses and calculations were based on maximum peak heights of contractions. For calculation of agonist- or EFS-induced contractions, tensions were expressed as % of KCl-induced contractions, as this may correct different stromal/epithelial ratios, different smooth muscle content, varying degree of BPH, or any other heterogeneity between prostate samples and patients.

Each structure is given as a SMILES string. Values joined by “and” are separate entries in the source; they are usually repeats but may differ in a detail not shown here. Equal values may be shown once.

As for `COc1ccc(CCNCc2ccc(OCc3ccc(Cl)nc3)c(OC)c2)cc1OC` [SBE 13], the “effect on endothelin-1-induced contractions of human prostate tissues” value in the assay on human prostate tissues [1] was “did not change”.

With `NC(=O)c1sc2c([N+](=O)[O-])cc(C(F)(F)F)cc2[n+]1[O-]` [cyclapolin], in the assay with human prostate tissues [1], the “effect on endothelin-1-induced contractions of human prostate tissues” value was “did not change”.

For `C[C@H](Cc1cc2c(c(C(N)=O)c1)N(CCCO)CC2)NCCOc1ccccc1OCC(F)(F)F` [silodosin, 1-(3-hydroxypropyl)-5-[(2 R)-2-[2-[2-(2,2,2-trifluoroethoxy)phenoxy]ethylamino]propyl]-2,3-dihydroindole-7-carboxamide, reference compound], the inhibition at 0.1 µM amounted to 84 ± 4.99% in the assay with human prostate tissues [2] (100 nM silodosin) and 47% with human prostate tissues [3] (Homo sapiens, 100 nM silodosin). In addition, in the assay with human prostate tissues [3] (silodosin 100 nM combined with onvansertib 100 nM), the “inhibition of EFS-induced contraction by add-on of silodosin, compared to onvansertib alone” value was 68% and 68±12.7%.

As for `CCOc1ccccc1OCCN[C@H](C)Cc1ccc(OC)c(S(N)(=O)=O)c1` [tamsulosin, 5-[(2 R)-2-[2-(2-ethoxyphenoxy)ethylamino]propyl]-2-methoxybenzenesulfonamide, reference compound], the inhibition at 0.3 µM in the assay on human prostate tissues [2] (300 nM tamsulosin) worked out at 93 ± 3.5%; in the assay with human prostate tissues [3] (Homo sapiens, 300 nM tamsulosin) it was 48%. Further, the “inhibition of EFS-induced contraction by add-on of tamsulosin, compared to onvansertib alone” value in the assay with human prostate tissues [3] (tamsulosin 300 nM combined with onvansertib 100 nM) is 68% and 68±12.2%.

The values above are taken from patent US20220143021A1 (Cardiff Oncology, Inc., priority 2019, published 2022).
